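1) Cells in 96-well plates. 2) Compound, 48 h, 5 concentrations. 3) Linear interpolation between surrounding doses. 4) Unreached endpoint = highest concentration. GI50: concentration for 50% inhibition of growth.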 Activity calls are given as the source filed them. Rule as the data show it: active = GI50 up to about 1.1 µM and inactive = higher.
Experiments:
Assay in all cases: inhibition of tumour cell growth, NCI panel, 48 h
HCC 2998 = test system: HCC 2998
HCT-116 = test system: HCT-116
HL-60 = test system: HL-60
HOP-62 = test system: HOP-62
HOP-92 = test system: HOP-92
HT-29 = test system: HT-29
KM12 = test system: KM12
MCF7 = test system: MCF7
MOLT-4 = test system: MOLT-4
Malme-3M = test system: Malme-3M
NCI-H522 = test system: NCI-H522
NCI/ADR-RES = test system: NCI/ADR-RES
OVCAR-5 = test system: OVCAR-5
PC-3 = test system: PC-3
RXF 393 = test system: RXF 393
SF-268 = test system: SF-268
SN12C = test system: SN12C
SW-620 = test system: SW-620
MDA-MB-231 = test system: MDA-MB-231
SK-MEL-28 = test system: SK-MEL-28

| SMILES | GI50 (HCC 2998) | GI50 (HCT-116) | GI50 (HL-60) | GI50 (HOP-62) | GI50 (HOP-92) | GI50 (HT-29) | GI50 (KM12) | GI50 (MCF7) | GI50 (MOLT-4) | GI50 (Malme-3M) | GI50 (NCI-H522) | GI50 (NCI/ADR-RES) | GI50 (OVCAR-5) | GI50 (PC-3) | GI50 (RXF 393) | GI50 (SF-268) | GI50 (SN12C) | GI50 (SW-620) | GI50 (MDA-MB-231) | GI50 (SK-MEL-28) |
| --- | --- | --- | --- | --- | --- | --- | --- | --- | --- | --- | --- | --- | --- | --- | --- | --- | --- | --- | --- | --- |
| NC(=O)CN1C=CCC(C(N)=O)=C1 [CARICOTAMIDE] | > 100 µM (inactive) | > 100 µM (inactive) | > 100 µM (inactive) | > 100 µM (inactive) | > 100 µM (inactive) | > 100 µM (inactive) | > 100 µM (inactive) | > 100 µM (inactive) | > 100 µM (inactive) | > 100 µM (inactive) | > 100 µM (inactive) | > 100 µM (inactive) | > 100 µM (inactive) | > 100 µM (inactive) | > 100 µM (inactive) | > 100 µM (inactive) | > 100 µM (inactive) | > 100 µM (inactive) | – | – |
| O=c1cc(NNc2ccc3ccccc3c2)[nH]c(=S)[nH]1 | 24 µM (inactive) | 39.9 µM (inactive) | 24.7 µM (inactive) | 27.4 µM (inactive) | 28.1 µM (inactive) | 16.4 µM (inactive) | 17.7 µM (inactive) | 4.31 µM (inactive) | – | 63.7 µM (inactive) | – | > 100 µM (inactive) | > 100 µM (inactive) | 19.8 µM (inactive) | – | 21.1 µM (inactive) | 34.8 µM (inactive) | 18.2 µM (inactive) | 42.8 µM (inactive) | 49.9 µM (inactive) |
| Nc1ncnc2c1ncn2C1CC(OC2CCCCO2)C(CO)O1 (configuration not stated) | > 100 µM (inactive) | > 100 µM (inactive) | > 100 µM (inactive) | > 100 µM (inactive) | > 100 µM (inactive) | > 100 µM (inactive) | > 100 µM (inactive) | – | 61.8 µM (inactive) | > 100 µM (inactive) | > 100 µM (inactive) | – | > 100 µM (inactive) | – | > 100 µM (inactive) | > 100 µM (inactive) | > 100 µM (inactive) | > 100 µM (inactive) | – | > 100 µM (inactive) |
| CN(C)CCNC(=O)c1cc([N+](=O)[O-])cc2ccc(-c3ccccc3)nc12 | 7.36 µM (inactive) | 3.23 µM (inactive) | 7.29 µM (inactive) | 12.9 µM (inactive) | 10.5 µM (inactive) | 3.85 µM (inactive) | 7.94 µM (inactive) | 2.71 µM (inactive) | – | 6.59 µM (inactive) | 3.85 µM (inactive) | 2.17 µM (inactive) | 6.4 µM (inactive) | – | 6.04 µM (inactive) | 7.91 µM (inactive) | 10.4 µM (inactive) | 5.22 µM (inactive) | – | 9.33 µM (inactive) |
| C1CCC(N=C2N(C3CCCCC3)C(=NC3CCCCC3)N2C2CCCCC2)CC1 | > 100 µM (inactive) | > 100 µM (inactive) | > 100 µM (inactive) | > 100 µM (inactive) | 30.3 µM (inactive) | > 100 µM (inactive) | > 100 µM (inactive) | – | > 100 µM (inactive) | > 100 µM (inactive) | > 100 µM (inactive) | – | > 100 µM (inactive) | – | > 100 µM (inactive) | > 100 µM (inactive) | > 100 µM (inactive) | > 100 µM (inactive) | – | > 100 µM (inactive) |
| Oc1cc(-c2ccc3ccccc3c2)nc2ncccc12 | 9.4 µM (inactive) | – | – | 21.7 µM (inactive) | 8.34 µM (inactive) | 4.16 µM (inactive) | 4.88 µM (inactive) | 5.77 µM (inactive) | 4.06 µM (inactive) | 13.1 µM (inactive) | 4.02 µM (inactive) | 4.4 µM (inactive) | 31.3 µM (inactive) | – | – | 28.1 µM (inactive) | 23.6 µM (inactive) | 5.18 µM (inactive) | 9.02 µM (inactive) | 8.63 µM (inactive) |
| COc1cc(CNc2nc3cc(C(F)(F)F)ccc3nc2-c2ccccc2)cc(OC)c1OC | 19.8 µM (inactive) | 19.1 µM (inactive) | 18.5 µM (inactive) | 43.5 µM (inactive) | – | 23.7 µM (inactive) | 14.8 µM (inactive) | 1.52 µM (inactive) | 12.9 µM (inactive) | 21.3 µM (inactive) | 22.3 µM (inactive) | 14.8 µM (inactive) | – | – | 10.6 µM (inactive) | 40.6 µM (inactive) | 24.3 µM (inactive) | 39.2 µM (inactive) | 20.6 µM (inactive) | 49.7 µM (inactive) |
| Cc1nc(C(N)=S)sc1C(=O)CC(=O)C(=O)Nc1c(C(C)C)cccc1C(C)C | 43.3 µM (inactive) | 38.7 µM (inactive) | 28 µM (inactive) | 86.9 µM (inactive) | 26.9 µM (inactive) | 37.3 µM (inactive) | 40.7 µM (inactive) | – | 41 µM (inactive) | 39.2 µM (inactive) | 18 µM (inactive) | – | > 100 µM (inactive) | – | 20.3 µM (inactive) | > 100 µM (inactive) | 56.8 µM (inactive) | 48.9 µM (inactive) | – | > 100 µM (inactive) |
| CC(C)(C)NC(NC(C)(C)C)=C(/C=C(/Cl)[N+](=O)[O-])[N+](=O)[O-] | 62.1 µM (inactive) | 34.3 µM (inactive) | 29.5 µM (inactive) | > 100 µM (inactive) | > 100 µM (inactive) | 41.8 µM (inactive) | > 100 µM (inactive) | 4.46 µM (inactive) | 48.3 µM (inactive) | 10.3 µM (inactive) | > 100 µM (inactive) | – | > 100 µM (inactive) | 45.6 µM (inactive) | > 100 µM (inactive) | 74.6 µM (inactive) | > 100 µM (inactive) | – | > 100 µM (inactive) | > 100 µM (inactive) |
| O=Cc1ccccc1OCCOc1cc(OCCOc2ccccc2C=O)c(OCCOc2ccccc2C=O)cc1OCCOc1ccccc1C=O | > 100 µM (inactive) | 21.9 µM (inactive) | > 78.2 µM (inactive) | 70.3 µM (inactive) | 26.2 µM (inactive) | > 100 µM (inactive) | > 100 µM (inactive) | – | > 45.1 µM (inactive) | > 100 µM (inactive) | > 86.9 µM (inactive) | – | > 100 µM (inactive) | – | 29.6 µM (inactive) | 52.1 µM (inactive) | > 100 µM (inactive) | 46.5 µM (inactive) | – | > 100 µM (inactive) |
| O=C(CCCNc1nc(-c2ccccc2)cs1)c1cccs1 | > 100 µM (inactive) | > 100 µM (inactive) | – | > 100 µM (inactive) | – | > 100 µM (inactive) | > 100 µM (inactive) | > 100 µM (inactive) | > 100 µM (inactive) | > 100 µM (inactive) | > 100 µM (inactive) | > 100 µM (inactive) | > 100 µM (inactive) | > 100 µM (inactive) | – | > 100 µM (inactive) | > 100 µM (inactive) | > 100 µM (inactive) | > 100 µM (inactive) | > 100 µM (inactive) |
| CN(C)CCNC(=O)c1cccc2nc3c4ccccc4c4ccccc4c3nc12 | 5.27 µM (inactive) | 1.53 µM (inactive) | 1.76 µM (inactive) | 16.2 µM (inactive) | 7.82 µM (inactive) | 1.51 µM (inactive) | 1.56 µM (inactive) | 1.14 µM (inactive) | 0.748 µM (active) | 1.8 µM (inactive) | 2.71 µM (inactive) | – | 7.67 µM (inactive) | 1.65 µM (inactive) | 2.06 µM (inactive) | 0.569 µM (active) | 1.92 µM (inactive) | 1.58 µM (inactive) | 1.82 µM (inactive) | 1.79 µM (inactive) |
| C[C@H]1CC[C@@]2(NC1)O[C@H]1C[C@H]3[C@@H]4CC[C@H]5C[C@@H](O)CC[C@]5(C)[C@H]4CC[C@]3(C)[C@H]1[C@@H]2C | > 100 µM (inactive) | 54.8 µM (inactive) | 51.1 µM (inactive) | 18.7 µM (inactive) | 52.6 µM (inactive) | 47.9 µM (inactive) | 71.8 µM (inactive) | > 100 µM (inactive) | > 100 µM (inactive) | – | 59.4 µM (inactive) | 49.2 µM (inactive) | > 100 µM (inactive) | > 100 µM (inactive) | – | 74.8 µM (inactive) | > 100 µM (inactive) | – | 32.2 µM (inactive) | – |
| COC(=O)/C(=N/NC(N)=O)C(C(=O)OC)C(=O)C(=O)Nc1ccc(Cl)cc1 (configuration not stated) | > 100 µM (inactive) | > 70.6 µM (inactive) | > 76.2 µM (inactive) | > 100 µM (inactive) | > 100 µM (inactive) | > 100 µM (inactive) | > 100 µM (inactive) | – | > 100 µM (inactive) | > 100 µM (inactive) | > 100 µM (inactive) | – | > 100 µM (inactive) | – | > 100 µM (inactive) | – | > 100 µM (inactive) | > 100 µM (inactive) | – | > 100 µM (inactive) |
| N#CC(C(=O)CCC(=O)Nc1cccc(C(F)(F)F)c1)c1ccccc1 (configuration not stated) | > 100 µM (inactive) | > 100 µM (inactive) | > 100 µM (inactive) | > 100 µM (inactive) | > 100 µM (inactive) | > 100 µM (inactive) | > 100 µM (inactive) | – | > 100 µM (inactive) | > 100 µM (inactive) | > 100 µM (inactive) | – | > 100 µM (inactive) | – | > 100 µM (inactive) | > 100 µM (inactive) | > 100 µM (inactive) | > 100 µM (inactive) | – | > 100 µM (inactive) |
| Cc1cccc(/C=C2\CCCCCC2=O)c1 | > 100 µM (inactive) | > 100 µM (inactive) | < 0.01 µM (active) | > 100 µM (inactive) | > 100 µM (inactive) | > 100 µM (inactive) | > 100 µM (inactive) | – | 99.8 µM (inactive) | > 100 µM (inactive) | > 100 µM (inactive) | – | > 100 µM (inactive) | > 100 µM (inactive) | – | > 100 µM (inactive) | > 100 µM (inactive) | > 100 µM (inactive) | > 100 µM (inactive) | > 100 µM (inactive) |

Reference: ChEMBL document CHEMBL1201862, “PubChem BioAssay data set” (2004)
